Measurements: US20190388411A1, “NSAID ADMINISTRATION AND RELATED COMPOSITIONS, METHODS AND SYSTEMS” (Alfasigma S.p.A., priority 2013, published 2019)
Marks after values point to notes of the source that are not given here.

How the values were obtained:
[1] = test system: indomethacin- and diclofenac-induced small intestinal damage; assay: Microscopical analysis of small intestinal damage in jejunum and ileum (Example 17); format: in vivo, male Albino Sprague Dawley rats; settings: rats, 14 days; for Ileum lesions type 1, 2 and 3 (in words) / Jejunal lesions type 1, 2 and 3 (in words): indomethacin […] BID, diclofenac 4 mg/kg BID, omeprazole 0.7 mg/kg/day, gastroresistant rifaximin 50 mg/kg BID, as named in the label; for Ileum Type 1 lesion (%) / Ileum Type 2 lesion (%) / Ileum Type 3 lesion (%) / Jejunum Type 1 lesion (%) / Jejunum Type 2 lesion (%) / Jejunum Type 3 lesion (%): indomethacin […] BID or diclofenac 4 mg/kg BID
Protocol: (§1) Group 1: ten animals treated with drug vehicle for 14 days (normal controls).
(§2) Group 6: twelve omeprazole-treated animals co-treated with gastroresistant rifaximin (50 mg/kg BID) for 14 days (omeprazole controls)
(§3) The enteropathy induced using diclofenac was carried out in the groups 8 to 11 as follows:
(§4) Group 8: fifteen animals treated with diclofenac 4 mg/kg BID (diclofenac ulcerated control
(§5) Group 9: fifteen animals treated with diclofenac 4 mg/kg BID and omeprazole 0.7 mg/kg once daily (diclofenac and omeprazole ulcerated control)
(§6) Group 10: twelve diclofenac-treated animals co-treated with gastroresistant rifaximin (50 mg/kg BID) for 14 days
(§7) Group 11: twelve diclofenac- and omeprazole-treated animals co-treated with gastroresistant rifaximin (50 mg/kg BID) for 14 days
(§8) Groups 1 to 11 were treated as follows:
(§9) Group 1 received 1% methylcellulose (0.3 ml/rat) and 1% methylcellulose (1 ml/rat) for 14 days.
(§10) Group 6 received gastroresistant rifaximin (50 mg/kg; 12 rats/group) suspended in 1% methylcellulose (1 ml/rat), twice daily, 1 hour before omeprazole 0.7 mg/kg once daily
(§11) Group 8 non-fasted rats were treated for 14 days with diclofenac 4 mg/kg BID by intragastric route, suspended in 1% methylcellulose and administered in a volume of 0.3 ml/rat.
(§12) Group 9 non-fasted rats were treated for 14 days with diclofenac 4 mg/kg BID, plus omeprazole 0.7 mg/kg once daily, by intragastric route, suspended in 1% methylcellulose and administered in a volume of 0.3 ml/rat.
(§13) Group 10 received gastroresistant rifaximin (50 mg/kg; 12 rats/group) suspended in 1% methylcellulose (1 ml/rat), twice daily, 1 hour before diclofenac administration
(§14) Group 11 received gastroresistant rifaximin (50 mg/kg; 12 rats/group) suspended in 1% methylcellulose (1 ml/rat), twice daily, 1 hour before diclofenac administration plus omeprazole 0.7 mg/kg once daily.
(§15) The whole intestinal tract was removed and intestinal tissue specimens processed for the evaluation of tissue myeloperoxidase (MPO) levels, an index of tissue neutrophils infiltration, of tissue malondialdehyde (MDA) levels, an index of lipid peroxidation and histological analysis of intestinal damage in jejunum and ileum.
Upon removal, the whole intestinal tract was immediately injected with 10% formalin and left in the same fixative solution. After 30 min, it was opened along the anti-mesenteric border, cleaned of fecal content and fixed in 10% formalin for 24 h. Tissue samples were taken as described below in order to rule out any bias:
The full length of the small intestine was measured.
Sections of jejunum and ileum were embedded into paraffin blocks and cut into […] serial 7-8 μm sections. The slices were cut at two different points of the block: two on the surface and three at a deeper level. Each slice was placed on the slide for staining with haematoxylin and eosin.
The intestinal damage was classified as reported in Table 27 wherein reference is made with respect to the histological appearance of type 1, 2 and 3 lesions of jejunum and ileum to the illustration of FIG. 1
The statistical significance of data was evaluated by one way analysis of variance (ANOVA) followed by post hoc analysis by Student-Newman-Keuls test, and P values lower than 0.05 were considered significant. All statistical procedures were performed using GraphPad Prism 3.0 software (GraphPad Prism, San Diego, Calif., USA).

[2] = Mortality in indomethacin- and diclofenac-induced enteropathy in rats (Example 17); settings: 14 days, indomethacin […] BID, diclofenac 4 mg/kg BID, omeprazole 0.7 mg/kg/day, gastroresistant rifaximin 50 mg/kg BID, as named in the label
Protocol: (§16) A total of one hundred forty two (142) male Albino Sprague Dawley rats, 500 to 600 g body weight (40-week old) were assessed.
as §1, §2, §3, §4, §5, §6, §7, §8, §9, §10, §11, §12, §13, §14

[3] = Blood hemoglobin levels in indomethacin- and diclofenac-induced enteropathy in rats (Example 17); format: in vivo, male Albino Sprague Dawley rats; settings: 14 days; for Blood hemoglobin levels (in words): indomethacin […] BID, diclofenac 4 mg/kg BID, omeprazole 0.7 mg/kg/day, gastroresistant rifaximin 50 mg/kg BID, as named in the label; for Hemoglobin (g/dl): indomethacin […] BID or diclofenac 4 mg/kg BID
Protocol: as §16, §1, §2, §3, §4, §5, §6, §7, §8, §9, §10, §11, §12, §13, §14
(§17) Twenty four hours after the last dose, the rats were euthanized and samples of blood were collected for the assessment of hemoglobin levels.
Haemoglobin analysis was performed on blood samples collected as reported above, using a Quantichrom Hemoglobin assay kit (Bioassay Systems, Hayward, Calif., USA) and expressed as g/dL.

myeloperoxidase (MPO) [4] = assay: Tissue myeloperoxidase (MPO) levels in jejunum and ileum, ELISA (Example 17); format: in vivo, male Albino Sprague Dawley rats; settings: rats, indomethacin […] BID or diclofenac 4 mg/kg BID, 14 days
Protocol: (§18) (indomethacin plus omeprazole ulcerated controls)
as §8, §15
MPO was assessed as described by Fornai et al., NSAID-Induced Enteropathy: Are the Currently Available Selective COX-2 Inhibitors All the Same, J Pharmacol Exp Ther January 2014 348:86-95 and assumed as a quantitative index to estimate the degree of intestinal wall infiltration by polymorphonuclear cells.
Specimens of 30 mg intestinal tissues were homogenized on ice with a polytron homogenizer (QIAGEN, Milan, Italy) in 0.6 mL of ice-cold lysis buffer consisting of 200 mM NaCl, 5 mM EDTA, 10 mM Tris, 10% glycerine, 1 mM phenylmethylsulfonyl fluoride, 1 μg/ml leupeptin and 28 μg/ml aprotinin at pH 7.4. The homogenate was centrifuged 2 times at […] at 1.500 g. The supernatant was diluted 1:5 and used for determination of MPO concentration by means of enzyme-linked immunosorbent assay (ELISA). (Hycult Biotech, Uden, Netherlands). All samples were assayed as described in Example 15. The results were expressed as nanograms of MPO per milligram of intestinal tissue.

malondialdehyde (MDA) = assay: Tissue malondialdehyde (MDA) levels in jejunum and ileum, colorimetric assay (Example 17); format: in vivo, male Albino Sprague Dawley rats; settings: rats, indomethacin […] BID or diclofenac 4 mg/kg BID, 14 days
Protocol: as §18, §8, §15
MDA concentration in intestinal tissues was determined to obtain quantitative estimates of membrane lipid peroxidation as described by Fornai et al., NSAID-Induced Enteropathy: Are the Currently Available Selective COX-2 Inhibitors All the Same? J Pharmacol Exp Ther January 2014 348:86-95. For this purpose, intestinal tissue was excised, weighed, minced by forceps, homogenized in 2 ml of cold buffer consisting of Tris-HCl 20 mM, at pH 7.4, using a polytron homogenizer (QIAGEN, Milan, Italy), and centrifuged at 1,500 g for 10 min at 4° C. Aliquots of supernatants were then used for subsequent assay procedures. Mucosal MDA concentrations were estimated using a colorimetric assay kit (Cayman Chemical, Ann Arbor, Mich., U.S.A.). Results were expressed as nanomoles of MDA per milligram of intestinal tissue.

[5] = Blood hemoglobin levels in indomethacin-induced enteropathy in rats (Example 16); format: in vivo, male Albino Sprague Dawley rats
Protocol: as §17
Hemoglobin analysis was performed on rat blood samples collected as reported above, by means of Quantichrom Hemoglobin assay kit (Bioassay Systems, Hayward, Calif., USA) and expressed as g/dL.

[6] = test system: indomethacin - induced microscopic intestinal damage; assay: Histological analysis of intestinal damage in jejunum and ileum (Example 16); format: in vivo, male Albino Sprague Dawley rats; settings: rats; indomethacin […] BID 14 days, alone or with gastroresistant rifaximin 25 and 50 mg/kg BID or rifaximin polymorph alpha 50 mg/kg BID
Protocol: (§19) The whole intestinal tract was removed and processed for the evaluation of tissue myeloperoxidase (MPO) levels and histological analysis of intestinal damage in jejunum and ileum.
Pharmacol. Ther. 1993; 7:29-39. Upon removal, the whole intestinal tract was immediately injected with 10% formalin and left in the same fixative solution. After 30 min, it was opened along the anti-mesenteric border, cleaned of fecal content and fixed in 10% formalin for 24 h. Tissue samples were taken as described below and the full length of small intestine was measured.
In particular the following tissue samples were taken • Ileum: 1 cm of tissue proximal to the ileo-cecal valve was discarded and two specimens of 1.5-2 cm of ileum were taken at this edge as well as 5 cm away from the first ileum sample • Proximal jejunum: two specimens of 1.5-2 cm were taken 5 cm away from both the proximal and distal end of the 37.5% of the small intestine total length. • Distal jejunum: two specimens of 1.5-2 cm were taken 5 cm away from both the proximal and distal end of 81% of small intestine's total length.
After fixation, tissues were embedded into paraffin blocks and were cut into consecutive serial 3-μm sections for staining with hematoxylin and eosin. Histological damage was assessed by two observers, blind to the treatment. Each section was given a score of lesion (Type 1 to 3) (TABLE 23).
Quantitative assessment of histological damage was expressed as percentage of the total length of lesions over the total length of the histological section.

myeloperoxidase (MPO) [7] = assay: Tissue myeloperoxidase (MPO) levels in jejunum and ileum, ELISA (Example 16); format: in vivo, male Albino Sprague Dawley rats; settings: rats; indomethacin […] BID 14 days, alone or with gastroresistant rifaximin 25 or 50 mg/kg BID or rifaximin polymorph alpha 50 mg/kg BID
Protocol: as §19
Specimens of intestinal tissues (30 mg) were homogenized on ice with a polytron homogenizer (QIAGEN, Milan, Italy) in 0.6 mL of ice-cold lysis buffer (200 mM NaCl, 5 mM EDTA, 10 mM Tris, 10% glycerine, 1 mM PMSF, 1 μg/ml leupeptin and 28 μg/ml aprotinin (pH 7.4). The homogenate was centrifuged 2 times at 4° C. for 15 min at 1.500 g. The supernatant was diluted 1:5 and used for determination of MPO concentration by means of enzyme-linked immunosorbent assay (ELISA) (Hycult Biotech, Uden, Netherlands). All samples were assayed within 2 day after collection. The results were expressed as nanograms of MPO per milligram of intestinal tissue.

| SMILES | Ileum lesions type 1, 2 and 3 (in words) [1] | Jejunal lesions type 1, 2 and 3 (in words) [1] | Ileum Type 1 lesion (%) [1] | Ileum Type 2 lesion (%) [1] | Ileum Type 3 lesion (%) [1] | Jejunum Type 1 lesion (%) [1] | Jejunum Type 2 lesion (%) [1] | Jejunum Type 3 lesion (%) [1] | Mortality (dead/treated animals) [2] | Blood hemoglobin levels (in words) [3] | Hemoglobin (g/dl) [3] | Ileum MDA (nmol/mg tissue) (malondialdehyde (MDA)) | Jejunum MDA (nmol/mg tissue) (malondialdehyde (MDA)) | further results |
| --- | --- | --- | --- | --- | --- | --- | --- | --- | --- | --- | --- | --- | --- | --- |
| O=C(O)Cc1ccccc1Nc1c(Cl)cccc1Cl [Diclofenac, diclofenac] | occurrence of various degrees of type 1, 2 and 3 lesions in both jejunum and ileum | occurrence of various degrees of type 1, 2 and 3 lesions in both jejunum and ileum | 26* % | 8.8* % | 3* % | 24.6* % | 4.2* % | 0.8* % | 7/15 | significant decrease in blood haemoglobin concentration | 11.3* g/dl | 67.1* nmol/mg tissue | 69.44* nmol/mg tissue | Mortality (%) ([2]; listed as diclofenac): 46.7%; Ileum MPO (ng/mg tissue) (myeloperoxidase (MPO) [4]): 19.35* ng/mg tissue; Jejunum MPO (ng/mg tissue) (myeloperoxidase (MPO) [4]): 20.37* ng/mg tissue; Ileum MPO (ng/mg tissue) (myeloperoxidase (MPO) [4]; listed as diclofenac): 19.35 ng/mg tissue; Jejunum MPO (ng/mg tissue) (myeloperoxidase (MPO) [4]; listed as diclofenac): 20.37 ng/mg tissue; Ileum MDA (nmol/mg tissue) (malondialdehyde (MDA); listed as diclofenac): 67.1 nmol/mg tissue; Jejunum MDA (nmol/mg tissue) (malondialdehyde (MDA); listed as diclofenac): 69.44 nmol/mg tissue |
| COc1ccc2c(c1)c(CC(=O)O)c(C)n2C(=O)c1ccc(Cl)cc1 [Indomethacin, indomethacin] | occurrence of various degrees of type 1, 2 and 3 lesions in both jejunum and ileum | occurrence of various degrees of type 1, 2 and 3 lesions in both jejunum and ileum | 28.3* % | 11.8* % | 5.2* % | 36* % | 18* % | 4.6* % | 2/15 | significant decrease in blood haemoglobin concentration | 11.6* g/dl | 54.47* nmol/mg tissue | 66.15* nmol/mg tissue | Reduction in hemoglobin values ([5]; end of the treatment period (14 days), in respect to the control): about 20%; Blood hemoglobin concentration (in words) ([5]; indomethacin […] BID 14 days, alone or with gastroresistant rifaximin at both doses or rifaximin polymorph alpha 50 mg/kg BID): significant decrease in blood hemoglobin concentration; Ileum type 1 lesions, microscopic assessment (in words) [6]: occurrence of type 1 and 2 lesions; Ileum type 2 lesions, microscopic assessment (in words) [6]: occurrence of type 1 and 2 lesions; Ileum type 3 lesions, microscopic assessment (in words) [6]: no significant differences were detected for type 3 lesions; Jejunum type 1 lesions, microscopic assessment (in words) [6]: occurrence of various degrees of type 1, 2 and 3 lesions; Jejunum type 2 lesions, microscopic assessment (in words) [6]: occurrence of various degrees of type 1, 2 and 3 lesions; Jejunum type 3 lesions, microscopic assessment (in words) [6]: occurrence of various degrees of type 1, 2 and 3 lesions; Ileum tissue MPO levels (in words) (myeloperoxidase (MPO) [7]): significant increase in tissue MPO levels; Jejunum tissue MPO levels (in words) (myeloperoxidase (MPO) [7]): significantly increased; Ileum MDA (nmol/mg tissue) (malondialdehyde (MDA); listed as indomethacin): 54.47 nmol/mg tissue; Jejunum MDA (nmol/mg tissue) (malondialdehyde (MDA); listed as indomethacin): 66.15 nmol/mg tissue |
